Values joined by “and” are separate entries in the source; they are usually repeats but may differ in a detail not shown here. Identical values can stand only once.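 48-hour exposure; five concentrations; linearly interpolated endpoints. GI50 marks 50% less growth. Definition used: TGI = concentration required for complete inhibition of growth.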

Experiment in all cases: DTP human tumour cell line panel, 48 h
Test [1] has as its system HCT-15 colon.
Test [2] deals with HT29 colon.
The subject of test [3] is SF-539 CNS.
Test [4] concerns SK-MEL-28 melanoma.
Test [5] has as its system CCRF-CEM leukemia.
Test [6] relates to MCF7 breast.
Test [7] concerns MDA-MB-435.
In test [8] the test system is PC-3 prostate.
Test [9] has as its system T-47D breast.

What is called TGI is the concentration giving total growth inhibition. Higher therefore signals lower sensitivity of the cells. For `COc1ccc(C(=O)Nc2ccc(S(=O)(=O)NCC(=O)O)cc2)cc1`, the TGI in [1], in test [2], in test [3], in [4] and in test [5] was over 100 µM throughout.
In the case of `C=CC1(c2ccccc2Cl)N/C(=C/OCC)CO1` (centres undefined), the TGI in [1], in [2], in test [3], in test [4] and in test [5] was over 100 µM in each case.
In general, GI50 refers to the concentration at which growth is held to half of that of the control. Consider `N.N.N.N.N.N#N.[Cl-].[Os+7]`, for which the GI50 in test [1], in [3] and in [4] was over 100 µM each time. In addition, the TGI in test [1], in test [3] and in [4] was over 100 µM each time.
Consider `O=C(c1ccccn1)c1nc(-c2ccc(Cl)c(Cl)c2)nc2ccc(Cl)cc12`, for which the TGI in test [1] was over 100 µM; in test [2] it was over 100 µM; in test [3], 56.4 µM; in [4] it was over 100 µM; in test [5], over 100 µM.
As to `O=c1c2[nH]c3ccccc3c2nc2n1CCS2`, the GI50 in [1] is 68.5 µM; in [2], over 100 µM; in [6] it was over 100 µM; in test [3], 85 µM; in test [7], over 100 µM; in test [8] it was 47.8 µM. Moreover, the values for the GI50 in test [4], in [5] and in test [9] were over 100 µM, 0.598 µM and over 100 µM, respectively. Further, the TGI in test [1], in [2], in test [6], in test [3], in test [7] and in [8] was over 100 µM in each case. Moreover, the TGI in [4], in test [5] and in test [9] was over 100 µM throughout.
Turning to `O=C(O)c1c([N+](=O)[O-])cc(C(F)(F)F)cc1[N+](=O)[O-]`, the TGI in test [1], in test [2], in test [3], in [4] and in test [5] was over 100 µM in each case.
Consider `C/C=C/C(=O)[C@@H](O)C(C)C`, for which the TGI in test [1], in [2] and in test [4] was over 100 µM throughout.
In the case of `Cc1cc2c(=O)cc(-c3ccc(C(F)(F)F)cc3)oc2c(C(=O)O)c1C`, the TGI in test [1], in test [2], in test [3], in [4] and in test [5] was over 100 µM in each case.
`CN(C)CCNC(=O)c1cccc2ccc(-c3cccnc3)nc12`: the TGI in test [1] is 17.4 µM; in test [2], 31.9 µM; in [3] it was 23.7 µM; in [4], 24.3 µM; in test [5], over 100 µM.
With `O=C(N[C@@H]1C=CCC[C@@H]1c1ccccc1)OCc1ccccc1`, the TGI in test [1] is 38.3 µM; in test [2], 53.1 µM; in [3], 33.5 µM; in [4] it was 46.5 µM; in test [5] it was 43.9 µM.
Consider `O=C(c1ccco1)c1ccccc1C(=O)c1ccco1`, for which the TGI in [1], in [2], in test [3], in test [4] and in [5] was over 100 µM each time.
As to `Cc1ccc(/C=N/NS(=O)(=O)c2ccccc2)cc1`, the TGI in test [1], in test [2], in test [3], in test [4] and in [5] was over 100 µM throughout.
Take `CCCCNC(=O)OCC(COc1ccccc1OC)OC(=O)NCCCC` (centres undefined): the TGI in [1], in test [2], in test [3], in [4] and in test [5] was over 100 µM in each case.
As to `CC1(C(=O)NCCN(CCNC(=O)C2(C)CC3(C)CC(C)(C2)C(=O)NC3=O)CCNC(=O)C2(C)CC3(C)CC(C)(C2)C(=O)NC3=O)CC2(C)CC(C)(C1)C(=O)NC2=O` (centres undefined), the TGI in [1], in test [2], in test [3], in test [4] and in test [5] was over 100 µM throughout.
As for `CN(C)C(=S)/N=c1\ssc(=S)n1-c1ccccc1`, the TGI in test [1] was 28.9 µM; in test [2], 37.5 µM; in test [3] it was 30.5 µM; in test [4] it was 30.5 µM; in test [5], over 100 µM.
Consider `NC(=S)N/N=C1\C(=O)N(CCc2ccccc2)C(=O)C1C(=O)NCCc1ccccc1` (centres undefined), for which the TGI in test [1], in [2], in test [3] and in test [4] was over 100 µM throughout.
As to `NCCn1ccc(NC(c2ccccc2)(c2ccccc2)c2ccccc2)nc1=O`, the TGI was over 100 µM in test [1], 31.1 µM in test [2], 31.3 µM in test [3] and 35 µM in test [4].
For `O=[N+]([O-])c1cccc(/C=C/c2ccccn2)c1`, the GI50 is 4.84 µM in test [1]; 0.569 µM in test [6]; 26.6 µM in test [3]; 67 µM in test [7]; 29.1 µM in [8]; over 100 µM in test [4]. Further, the GI50 in test [5] was 7.91 µM; in test [9], 1.82 µM. In addition, the TGI in test [1], in [6], in test [3], in [7], in test [8] and in test [4] was over 100 µM in each case. Moreover, the TGI in test [5] was 43 µM; in test [9] it was over 100 µM.
As for `CSc1c(S(C)=O)[nH]c2cc(Br)cc(Br)c12` (centres undefined), the TGI worked out at 70.8 µM in [1]; 72.1 µM in [2]; 47.5 µM in test [3]; 43.4 µM in test [4]; 58.5 µM in test [5].
On to `COc1cc[c]([Sb]([Br])([CH]=C(C)C)([CH]=C(C)C)[CH]=C(C)C)cc1`, for which the GI50 is 40.5 µM in test [1], 4.89 µM in [2], 2.98 µM in test [4] and 5.65 µM in test [5]. Moreover, the TGI is over 100 µM in test [1], over 100 µM in test [2], 93.5 µM in test [4] and over 100 µM in [5].
Consider `O=C1NC2(CCCC2)/C(=N\O)C12CCCC2`, for which the TGI in test [1], in [2], in [3], in [4] and in test [5] was over 100 µM in each case.
As for `COc1cc(OC)cc(-c2ccc(-c3ccc(C(=N)N)s3)s2)c1`, the GI50 was 0.294 µM in [1]; 0.271 µM in test [6]; 1.24 µM in [3]; 0.271 µM in test [7]; 1.42 µM in [8]; 1.52 µM in [4]. Further, the 50% growth inhibitory concentration (GI50) in test [5] is 1.24 µM and 0.277 µM; in test [9], 1.36 µM. Besides, the TGI in test [1] turned out to be 1.01 µM; in test [6], 1.22 µM; in test [3], 3.45 µM; in [7], 0.991 µM; in test [8], 2.93 µM; in test [4], 3.51 µM. Besides, the TGI is 2.9 µM and 0.75 µM in test [5]; 3.15 µM in test [9].
`Clc1ccccc1C1N2CCCCC2[C@@H]2c3[nH]c4ccccc4c3CCN12` (some centres undefined): the TGI in test [1] came out at 29.9 µM; in test [2], 31.8 µM; in [3] it was 30.9 µM; in test [4], 34.2 µM; in [5], 52.9 µM.
Consider `NC1=NN(c2ccccc2)C(=O)C1/C(=N\NC(=O)c1cc2ccccc2cc1O)C(=O)Nc1nc([N+](=O)[O-])cs1` (centres undefined), for which the TGI in test [1] is over 74.1 µM; in [2] it was over 93 µM; in test [3], 59.6 µM; in test [4] it was over 100 µM; in [5], 59.7 µM.
For the compound `CC(C)(C)CC(C)(C)N(CSc1ccc(Cl)cc1)CSc1ccc(Cl)cc1`, the GI50 is 2.29 µM in test [1]; 2.83 µM in [2]; 2.2 µM in test [6]; 1.23 µM in test [3]; 1.45 µM in test [7]; 0.472 µM in test [8]. Besides, the GI50 in test [4] is 1.99 µM; in [5] it was 0.366 µM. For the same compound, the TGI in test [1] worked out at 11.5 µM; in [2] it was 9.18 µM; in [6] it was 10.2 µM; in test [3], 2.56 µM; in test [7] it was 4.05 µM; in test [8], 4.3 µM. Also, the values for the TGI in test [4] and in test [5] were 5.74 µM and 3.38 µM, respectively.
On to `COc1ccc2nc3ccccc3c(NCCCCCN(CCCl)CCCl)c2c1`, for which the concentration for total growth inhibition (TGI) in test [2] was 2.84 µM; in test [4] it was 1.19 µM; in test [5] it was 0.118 µM.

Values taken from PubChem BioAssay (NCI).
